Experimental data taken from PMC6257821, “Selective agonist of TRPML2 reveals direct role in chemokine release from innate immune cells” (eLife, 2018).

Columns and labels:
Format in all cases: cell-based
hTRPML3 = molecular target: T1, hTRPML3 (Homo sapiens, UniProt Q8TDD5); test: endolysosomal patch-clamp (LE/LY, HEK293), […], positive control; design: gene MCOLN3
T1 sequence (Q8TDD5 1-553): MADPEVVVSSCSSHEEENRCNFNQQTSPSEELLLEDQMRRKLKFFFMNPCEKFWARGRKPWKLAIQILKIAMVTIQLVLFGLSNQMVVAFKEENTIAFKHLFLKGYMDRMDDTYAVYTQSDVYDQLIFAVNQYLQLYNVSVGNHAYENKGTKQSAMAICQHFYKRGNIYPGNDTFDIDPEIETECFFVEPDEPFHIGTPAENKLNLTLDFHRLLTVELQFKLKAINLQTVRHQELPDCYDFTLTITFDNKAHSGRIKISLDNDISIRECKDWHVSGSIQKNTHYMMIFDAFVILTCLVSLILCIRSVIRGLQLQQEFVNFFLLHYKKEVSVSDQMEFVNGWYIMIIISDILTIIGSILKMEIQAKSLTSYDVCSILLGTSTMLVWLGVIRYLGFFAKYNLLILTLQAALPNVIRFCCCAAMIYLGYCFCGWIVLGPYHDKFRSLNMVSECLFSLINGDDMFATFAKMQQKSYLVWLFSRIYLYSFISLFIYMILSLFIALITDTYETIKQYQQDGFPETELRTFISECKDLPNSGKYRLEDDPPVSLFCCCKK

hTRPML1 = molecular target: T2, hTRPML1 (Homo sapiens, UniProt Q9GZU1); test: as above
T2 construct: gene MCOLN1
T2 sequence (Q9GZU1 whole entry): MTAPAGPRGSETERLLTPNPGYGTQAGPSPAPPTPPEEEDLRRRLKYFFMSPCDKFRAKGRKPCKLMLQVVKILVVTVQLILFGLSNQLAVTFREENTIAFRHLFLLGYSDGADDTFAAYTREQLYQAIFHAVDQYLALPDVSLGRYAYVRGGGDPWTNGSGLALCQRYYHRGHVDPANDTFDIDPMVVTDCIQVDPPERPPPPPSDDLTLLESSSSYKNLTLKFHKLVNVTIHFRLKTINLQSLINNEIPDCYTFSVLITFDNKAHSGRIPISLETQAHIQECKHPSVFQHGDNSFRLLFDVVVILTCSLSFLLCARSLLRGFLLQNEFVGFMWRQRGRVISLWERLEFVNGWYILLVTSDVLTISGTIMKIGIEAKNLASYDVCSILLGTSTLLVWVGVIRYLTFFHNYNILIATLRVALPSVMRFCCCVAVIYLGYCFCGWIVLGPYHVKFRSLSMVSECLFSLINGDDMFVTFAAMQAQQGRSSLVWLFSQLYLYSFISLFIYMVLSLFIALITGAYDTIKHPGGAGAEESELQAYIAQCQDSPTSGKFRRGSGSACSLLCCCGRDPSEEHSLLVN

mTRPML2 = molecular target: T3, mTRPML2 (Mus musculus, UniProt Q8K595); test: fura-2 calcium imaging dose-response in HEK293 cells; endolysosomal patch-clamp in LPS-stimulated mouse macrophages
T3 construct: gene Mcoln2
T3 sequence (Q8K595 1-566): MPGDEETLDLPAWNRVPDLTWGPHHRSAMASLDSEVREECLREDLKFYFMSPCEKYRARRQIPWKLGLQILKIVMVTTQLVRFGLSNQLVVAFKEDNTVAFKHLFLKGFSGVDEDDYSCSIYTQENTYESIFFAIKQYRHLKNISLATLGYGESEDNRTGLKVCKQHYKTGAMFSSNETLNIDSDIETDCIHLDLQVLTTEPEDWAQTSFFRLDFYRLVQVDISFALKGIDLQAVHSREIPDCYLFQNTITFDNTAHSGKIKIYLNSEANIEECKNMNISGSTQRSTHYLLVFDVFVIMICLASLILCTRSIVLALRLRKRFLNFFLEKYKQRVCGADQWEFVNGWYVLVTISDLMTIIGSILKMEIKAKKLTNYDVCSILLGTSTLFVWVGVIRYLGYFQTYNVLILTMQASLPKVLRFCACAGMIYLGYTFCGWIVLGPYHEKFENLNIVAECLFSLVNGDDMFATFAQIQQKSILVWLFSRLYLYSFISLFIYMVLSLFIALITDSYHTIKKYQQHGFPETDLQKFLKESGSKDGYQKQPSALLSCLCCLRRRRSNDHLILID

hTRPML2 = molecular target: T4, hTRPML2 (Homo sapiens, UniProt Q8IZK6); test: fura-2 calcium imaging dose-response and endolysosomal patch-clamp in HEK293 cells; G425A mutation abrogates effect
T4 construct: gene MCOLN2; hTRPML2-YFP
T4 sequence (Q8IZK6 1-566): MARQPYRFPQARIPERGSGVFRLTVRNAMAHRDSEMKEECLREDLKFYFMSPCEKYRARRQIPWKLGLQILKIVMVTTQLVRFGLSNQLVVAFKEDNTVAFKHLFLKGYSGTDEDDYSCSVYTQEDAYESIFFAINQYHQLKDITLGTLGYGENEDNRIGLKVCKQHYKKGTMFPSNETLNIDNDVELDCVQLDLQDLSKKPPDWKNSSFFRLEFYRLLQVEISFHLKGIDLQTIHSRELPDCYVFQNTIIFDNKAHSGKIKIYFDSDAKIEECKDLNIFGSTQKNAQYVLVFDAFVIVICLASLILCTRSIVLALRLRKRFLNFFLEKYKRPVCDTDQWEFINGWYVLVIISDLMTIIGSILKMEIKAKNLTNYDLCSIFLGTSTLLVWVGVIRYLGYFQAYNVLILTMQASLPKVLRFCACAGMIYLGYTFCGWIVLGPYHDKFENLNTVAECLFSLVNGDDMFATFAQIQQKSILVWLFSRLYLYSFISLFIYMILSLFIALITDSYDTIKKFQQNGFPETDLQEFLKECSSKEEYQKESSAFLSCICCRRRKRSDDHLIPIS

| Compound | endolysosomal patch-clamp (LE/LY, HEK293), 10 μM, positive control (hTRPML3) | endolysosomal patch-clamp (LE/LY, HEK293), 10 μM, positive control (hTRPML1) | EC50 (mTRPML2) [µM] | EC50 (hTRPML2) [µM] |
| --- | --- | --- | --- | --- |
| CC1CC(C)(C)N(C(=O)CN2C(=O)c3ccccc3C2=O)c2ccccc21 (stereo not shown) [ML-SA1] | the latter ones were robustly activated by ML-SA1 as a positive control | the latter ones were robustly activated by ML-SA1 as a positive control |  |  |
| Clc1cccc(Cl)c1C1=NOC2C3CCC(C3)C12 (stereo not shown) [EVP-22, ML2-SA1] |  |  | 2.38 ± 0.01 | 1.24 ± 0.12 |
